Laboratory results as given in patent US10654852B2, “Antibiotics and methods of using same” (THE BROAD INSTITUTE, INC., priority 2016, dated 2020).
Converted amounts (≈) assume the structure as drawn.

Legend:
Type in all cases: cell-based
[1] = system: Escherichia coli ATCC-25922; experiment: MIC in the presence of normal human serum (50% NHS); settings: ATCC25922; Escherichia coli ATCC-25922, 50% NHS, Table 6; read-out: MIC
Description: As used herein, the term “MIC” refers to minimum inhibitory concentrations. Minimum inhibitory concentrations may be determined by broth microdilution according to the Clinical and Laboratory Standards Institute guidelines (see, e.g., […]-A8. Methods for dilution antimicrobial susceptibility tests for bacteria that grow aerobically: approved standard, 8th Ed.; […] One example for measuring minimum inhibitory concentrations may be found in Reck et al., 2012, J. Med. Chem. 55:6916-6933, the disclosure of which is incorporated by reference. Inoculants may be incubated on blood agar plates for 18 to 24 hours. Incubation may occur at a temperature from about 35° C. to about 37° C. […] In serum supplemented experiments, the testing medium (e.g., DMSO solution) and human serum may be mixed. The ratio of testing medium to human serum may be 1:1 (vol:vol). Plates may be read by spectrophotometry at 620 nm. Unless indicated otherwise, all inhibitory concentrations recited in the specification relate to MICs. The MIC tests were based on broth microdilution method in CLSI-M7. […] Solutions of varying concentrations of DMSO were prepared in wells of a v-bottom 96-well plate (Axygen-WIPP02280). A multi-pipette was used to perform serial dilutions as necessary. From well to well, the drug concentrations were 6.4, 3.2, 1.6, 0.8, 0.4, 0.2, 0.1, 0.05, 0.025, 0.0125, 0.00625 and 0 mg/ml in DMSO. For extremely potent antibiotic, the starting concentrations were adjusted accordingly. This was the drug mother plate. Daughter plates were prepared by placing 98 μl of a testing medium into each well of a u-bottom 96-well plate (Costar 3788). An aliquot of each 2 μl solution from each well of the mother plate was then transferred into the corresponding wells of the daughter plate using a multi-pipette work station (CyBi®-SELMA). Testing media were selected based on CLSI-M7, M11 and […]. Cation adjusted Mueller Hinton Broth (CA-MHB-212322) was the testing medium for majority of bacterial species. Brucella medium (BD-211088) supplemented with 5% LHB, 0.5% hemin and 0.1% vitamin K1 (Sigma-95271) was the testing medium for anaerobic bacteria. One day prior to the day of MIC test, bacterial strains were streaked out from -80° C. glycerol stock onto Trypticase Soy Agar (TSA) plates (Brucella blood agar for anaerobic bacteria) and incubated at 37° C. for 20 hours (in anaerobic condition for anaerobic bacteria, e.g., 80% N2, 10% H2 and 10% CO2). Single colonies of bacteria were picked by using an inoculation loop (Greiner-731175) and suspended into 5 ml sterile saline. The turbidity of the suspension was adjusted to 0.10 (Siemens MicroS can turbidity meter), which implies a concentration of colony forming units (“CFU”) of approximately 1.0×10^8 CFU/ml. The bacterial suspension was diluted 100× in testing media. For MIC experiments with NHS, testing medium and human serum (Equitech Bio Inc. BRH-949908) were mixed in the ratio of 1:1. This was used for inoculation of the daughter plates. An aliquot of 100 μl of the bacterial suspension was inoculated into each well of the daughter plates using a multi-pipette. […] The plates were incubated in ambient atmosphere and at 37° C. in an incubator for 20 hours (for anaerobic bacteria in an anaerobic condition as described above for 48 hours). The MIC values were determined and based on the standards of CLSI methods M7-A7, broth microdilution method. […] Test compounds were compared to control antibiotics Penicillin G (Sigma-13752) and levofloxacin (Sigma-28266). […] Additionally, the MIC's of another gyrase inhibitor (“GSK”) with a structure different from the inventive compounds and the antibacterial levofloxin was measured. MIC are given in μg/mL.

[2] = system: Klebsiella pneumonia ATCC-43816; experiment: MIC (50% NHS); settings: Klebsiella pneumoniae, ATCC43816; Klebsiella pneumonia ATCC-43816, 50% NHS
[3] = system: Klebsiella pneumonia ATCC-700603; experiment: MIC (50% NHS); settings: Klebsiella pneumoniae, ATCC700603; Klebsiella pneumonia ATCC-700603, 50% NHS
[4] = system: Escherichia coli CCUG-59353; experiment: MIC (50% NHS); settings: CCUG59353; Escherichia coli CCUG-59353, 50% NHS
[5] = system: Escherichia coli NCTC-13476; experiment: MIC (50% NHS); settings: NCTC13476; Escherichia coli NCTC-13476, 50% NHS
[6] = system: Escherichia coli ATCC-BAA-2340; experiment: MIC (50% NHS); settings: ATCCBAA2340; Escherichia coli ATCC-BAA-2340, 50% NHS
[7] = system: Acinetobacter baumannii ATCC 17978; experiment: MIC (50% NHS); settings: ATCC17978; Acinetobacter baumannii ATCC 17978, 50% NHS
[8] = system: Pseudomonas aeruginosa ATCC-BAA-47 (PAO1); experiment: MIC (50% NHS)
[9] = system: Enterobacter aerogenes ATCC-13048; experiment: MIC (50% NHS); settings: Klebsiella aerogenes, ATCC13048; Enterobacter aerogenes ATCC-13048, 50% NHS
[10] = system: Enterobacter cloacae ATCC-222; experiment: MIC (50% NHS); settings: ATCC222; Enterobacter cloacae ATCC-222, 50% NHS
[11] = system: Enterobacter cloacae ATCC-BAA-1143; experiment: MIC (50% NHS); settings: ATCCBAA1143; Enterobacter cloacae ATCC-BAA-1143, 50% NHS
[12] = system: Citrobacter werkmanii Brenner ATCC-51114; experiment: MIC (50% NHS); settings: ATCC51114; Citrobacter werkmanii Brenner ATCC-51114, 50% NHS
[13] = system: Serratia marcescens Bizio ATCC-29021; experiment: MIC (50% NHS); settings: ATCC29021; Serratia marcescens Bizio ATCC-29021, 50% NHS
[14] = system: Proteus mirabilis ATCC-29906; experiment: MIC (50% NHS); settings: ATCC29906; Proteus mirabilis ATCC-29906, 50% NHS
[15] = system: Enterococcus faecalis ATCC-29212; experiment: MIC (50% NHS); settings: ATCC29212; Enterococcus faecalis ATCC-29212, 50% NHS
[16] = system: Enterococcus faecium ATCC-700221; experiment: MIC (50% NHS); settings: ATCC700221; Enterococcus faecium ATCC-700221, 50% NHS
[17] = system: Staphylococcus aureus ATCC-29213; experiment: MIC (50% NHS); settings: ATCC29213; Staphylococcus aureus ATCC-29213, 50% NHS
[18] = system: Staphylococcus aureus NRS-384; experiment: MIC (50% NHS); settings: NRS384; Staphylococcus aureus NRS-384, 50% NHS
[19] = system: Staphylococcus aureus NRS-100; experiment: MIC (50% NHS); settings: NRS100; Staphylococcus aureus NRS-100, 50% NHS
[20] = system: Staphylococcus aureus WX1-009; experiment: MIC (50% NHS); settings: WX1009; Staphylococcus aureus WX1-009, 50% NHS

Which MIC [1] does the source give for C[C@H]1COc2c(N3CCN(C)CC3)c(F)cc3c(=O)c(C(=O)O)cn1c23 [Levofloxin, reference compound] here?
Its MIC is 0.031 µg/mL.

And the MIC [2]?
Its MIC is 0.13 µg/mL (≈ 0.36 µM).

What about the MIC [3] of the same compound?
The MIC was 0.5 µg/mL (≈ 1.38 µM).

What about the MIC [4] of the same compound?
The MIC was greater than 2 µg/mL.

What about the MIC [5] of the same compound?
Its MIC is greater than 2 µg/mL.

And the MIC [6]?
The MIC was greater than 2 µg/mL.

What about the MIC [7] of the same compound?
Its MIC is 1 µg/mL (≈ 2.77 µM).

And the MIC [8]?
Its MIC is 1 µg/mL (≈ 2.77 µM).

And the MIC [9]?
Its MIC is 0.13 µg/mL (≈ 0.36 µM).

And the MIC [10]?
Its MIC is 0.06 µg/mL (≈ 0.166 µM).

And the MIC [11]?
Its MIC is 0.06 µg/mL (≈ 0.166 µM).

What about the MIC [12] of the same compound?
Its MIC is 0.25 µg/mL (≈ 0.692 µM).

What about the MIC [13] of the same compound?
Its MIC is 0.13 µg/mL (≈ 0.36 µM).

What about the MIC [14] of the same compound?
The MIC was 0.25 µg/mL (≈ 0.692 µM).

And the MIC [15]?
Its MIC is 2 µg/mL (≈ 5.53 µM).

What about the MIC [16] of the same compound?
The MIC was greater than 2 µg/mL.

And the MIC [17]?
Its MIC is 0.5 µg/mL (≈ 1.38 µM).

What about the MIC [18] of the same compound?
Its MIC is 1 µg/mL (≈ 2.77 µM).

And the MIC [19]?
Its MIC is 0.5 µg/mL (≈ 1.38 µM).

What about the MIC [20] of the same compound?
The MIC was greater than 2 µg/mL.
